Experiment [1] is described as follows: Cytotoxicity against human H522-T1 cells after 96 hrs by CellTiter-Glo assay. It counts as functional, cell-based. To be noted: H522-T1, 96 h.
A short description of experiment [2]: Cytotoxicity against human H460 cells after 96 hrs by CellTiter-Glo assay. The experiment is classed as functional, cell-based. To be noted: NCI-H460, 96 h. On the technique in general: ATP-based viability assays read luminescence as a measure of living cells.
The subject of another experiment is PC-3. Kind of experiment: Cytotoxicity against human PC3 cells after 96 hrs by CellTiter-Glo assay. To be noted: PC-3, 96 h. The experiment is classed as functional, cell-based.
A further experiment has as its system IMR-90. Briefly: Cytotoxicity against human IMR90 cells after 96 hrs by CellTiter-Glo assay. It counts as cell-based. To be noted: IMR-90, 96 h.
A further experiment concerns A2058. Kind of experiment: Cytotoxicity against human A2058 cells after 96 hrs by CellTiter-Glo assay. It counts as functional, cell-based. To be noted: A2058, 96 h.

For the molecule `CC[C@]1(O)C[C@@H]2CN(CCc3c([nH]c4ccccc34)[C@@](C(=O)OC)(c3cc4c(cc3OC)N(C)[C@H]3[C@@](O)(C(=O)OC)[C@H](OC(C)=O)[C@]5(CC)C=CCN6CC[C@]43[C@@H]65)C2)C1` [VINBLASTINE], the IC50 (as a rule, the point on the concentration scale where inhibition reaches its midpoint) in experiment [1] was determined as 9 nM; in experiment [2], 2 nM; in the experiment on PC-3 it was 5 nM.
In the case of `CC1(C)CCC[C@@]2(C)C1CC[C@@]1(C)C3=CC(=O)C(=O)c4[nH]cc(c43)C[C@@]12O` (some centres undefined) [MYCOLEPTODISCIN B], the half-maximal inhibitory concentration (IC50) in the experiment with IMR-90 came to 410 nM; in the experiment on A2058 it was 780 nM; in experiment [1] it was 630 nM; in experiment [2], 660 nM; in the experiment on PC-3 it was 600 nM.
For `N#CC(=O)C#N` [CARBONYL CYANIDE], the IC50 in the experiment with IMR-90 came to 5000 nM.

These data come from ChEMBL document CHEMBL2331498, “Mycoleptodiscins A and B, cytotoxic alkaloids from the endophytic fungus Mycoleptodiscus sp. F0194” (J Nat Prod, 2013).
